According to PMC12163657 (ACS Omega, 2025):
Numbering of substitutions follows the chain as printed.

Experiments:
[1] = target: CYP 3A4 (Homo sapiens, UniProt P08684); experiment: CYP inhibition in human liver microsomes; assay type: in vitro ADME
[2] = target: T1, ESR1 Asp538Gly (Homo sapiens, UniProt P03372, D538G); experiment: AP; assay type: cell-based
T1 sequence (P03372 1-595 D538G): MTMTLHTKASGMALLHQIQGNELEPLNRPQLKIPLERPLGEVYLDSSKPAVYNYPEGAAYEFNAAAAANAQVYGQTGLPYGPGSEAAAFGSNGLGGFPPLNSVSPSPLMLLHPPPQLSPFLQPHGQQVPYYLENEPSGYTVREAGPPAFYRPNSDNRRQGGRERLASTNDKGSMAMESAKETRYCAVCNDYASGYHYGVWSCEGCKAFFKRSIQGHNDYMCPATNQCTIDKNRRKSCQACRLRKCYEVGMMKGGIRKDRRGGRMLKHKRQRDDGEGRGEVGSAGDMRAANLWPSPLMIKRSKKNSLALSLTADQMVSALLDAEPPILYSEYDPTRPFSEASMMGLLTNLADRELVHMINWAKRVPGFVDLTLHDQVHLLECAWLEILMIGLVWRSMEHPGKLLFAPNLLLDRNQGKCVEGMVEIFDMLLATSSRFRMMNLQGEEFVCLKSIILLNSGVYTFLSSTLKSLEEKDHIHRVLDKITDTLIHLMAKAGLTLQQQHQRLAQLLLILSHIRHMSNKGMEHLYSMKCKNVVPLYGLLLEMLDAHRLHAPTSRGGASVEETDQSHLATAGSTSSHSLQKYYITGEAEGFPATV

[3] = target: T2, ERα (Homo sapiens, UniProt P03372); experiment: Reporter assay of gene transcription activity, ERα; assay type: cell-based
T2 sequence (P03372 1-595): T1 sequence (P03372 1-595 D538G) with G538D

[4] = target: T3, ERα LBD (Homo sapiens, UniProt P03372); experiment: LanthaScreen TR-FRET ERα competitive binding assay
T3 sequence (P03372 311-547 limits assumed): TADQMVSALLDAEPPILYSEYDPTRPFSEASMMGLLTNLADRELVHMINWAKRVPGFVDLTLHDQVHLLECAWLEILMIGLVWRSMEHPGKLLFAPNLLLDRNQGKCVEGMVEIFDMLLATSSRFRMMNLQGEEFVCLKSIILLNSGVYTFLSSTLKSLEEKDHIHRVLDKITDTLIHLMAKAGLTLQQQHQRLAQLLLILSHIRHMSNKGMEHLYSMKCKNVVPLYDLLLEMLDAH

[5] = Plasma protein binding, rapid equilibrium dialysis, human plasma; assay type: in vitro ADME
[6] = target: P-gp (Homo sapiens, UniProt P08183); experiment: P-gp inhibition, membrane vesicles; assay type: in vitro ADME
P-gp, sequence (P08183 whole entry): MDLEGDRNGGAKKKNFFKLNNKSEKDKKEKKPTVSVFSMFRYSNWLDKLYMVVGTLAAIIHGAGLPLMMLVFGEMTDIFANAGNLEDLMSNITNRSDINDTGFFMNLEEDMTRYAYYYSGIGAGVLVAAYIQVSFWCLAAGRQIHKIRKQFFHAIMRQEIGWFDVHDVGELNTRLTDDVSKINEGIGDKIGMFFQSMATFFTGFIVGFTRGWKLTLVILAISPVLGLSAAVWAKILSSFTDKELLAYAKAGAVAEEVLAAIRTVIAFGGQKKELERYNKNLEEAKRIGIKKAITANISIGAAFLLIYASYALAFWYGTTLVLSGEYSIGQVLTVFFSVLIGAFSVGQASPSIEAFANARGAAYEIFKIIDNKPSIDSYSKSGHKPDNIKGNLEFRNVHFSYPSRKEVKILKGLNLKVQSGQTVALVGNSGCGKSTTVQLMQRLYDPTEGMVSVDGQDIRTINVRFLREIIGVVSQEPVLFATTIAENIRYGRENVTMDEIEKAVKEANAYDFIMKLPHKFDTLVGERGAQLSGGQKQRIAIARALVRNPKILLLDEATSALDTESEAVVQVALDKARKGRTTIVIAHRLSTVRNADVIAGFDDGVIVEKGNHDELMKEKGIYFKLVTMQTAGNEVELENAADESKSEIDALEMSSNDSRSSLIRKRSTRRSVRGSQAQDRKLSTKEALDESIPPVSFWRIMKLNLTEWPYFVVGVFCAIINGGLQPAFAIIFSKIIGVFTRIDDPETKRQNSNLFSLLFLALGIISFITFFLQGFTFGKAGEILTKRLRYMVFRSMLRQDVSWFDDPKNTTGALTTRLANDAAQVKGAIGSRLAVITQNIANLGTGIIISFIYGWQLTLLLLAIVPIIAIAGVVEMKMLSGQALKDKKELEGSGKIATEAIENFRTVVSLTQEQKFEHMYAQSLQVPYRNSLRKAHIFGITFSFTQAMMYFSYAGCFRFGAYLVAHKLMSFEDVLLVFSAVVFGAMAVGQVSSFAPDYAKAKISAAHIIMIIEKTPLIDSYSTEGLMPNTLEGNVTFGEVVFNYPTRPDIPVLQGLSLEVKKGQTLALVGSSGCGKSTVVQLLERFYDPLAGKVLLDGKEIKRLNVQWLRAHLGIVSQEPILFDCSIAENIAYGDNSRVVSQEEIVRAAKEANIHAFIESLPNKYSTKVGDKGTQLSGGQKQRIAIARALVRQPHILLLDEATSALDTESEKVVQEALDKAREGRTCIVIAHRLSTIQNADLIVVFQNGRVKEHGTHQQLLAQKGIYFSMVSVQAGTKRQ

[7] = target: T4, GR (Homo sapiens, UniProt P04150); experiment: Reporter assay of gene transcription activity, GR; assay type: cell-based
T4 sequence (P04150 1-777): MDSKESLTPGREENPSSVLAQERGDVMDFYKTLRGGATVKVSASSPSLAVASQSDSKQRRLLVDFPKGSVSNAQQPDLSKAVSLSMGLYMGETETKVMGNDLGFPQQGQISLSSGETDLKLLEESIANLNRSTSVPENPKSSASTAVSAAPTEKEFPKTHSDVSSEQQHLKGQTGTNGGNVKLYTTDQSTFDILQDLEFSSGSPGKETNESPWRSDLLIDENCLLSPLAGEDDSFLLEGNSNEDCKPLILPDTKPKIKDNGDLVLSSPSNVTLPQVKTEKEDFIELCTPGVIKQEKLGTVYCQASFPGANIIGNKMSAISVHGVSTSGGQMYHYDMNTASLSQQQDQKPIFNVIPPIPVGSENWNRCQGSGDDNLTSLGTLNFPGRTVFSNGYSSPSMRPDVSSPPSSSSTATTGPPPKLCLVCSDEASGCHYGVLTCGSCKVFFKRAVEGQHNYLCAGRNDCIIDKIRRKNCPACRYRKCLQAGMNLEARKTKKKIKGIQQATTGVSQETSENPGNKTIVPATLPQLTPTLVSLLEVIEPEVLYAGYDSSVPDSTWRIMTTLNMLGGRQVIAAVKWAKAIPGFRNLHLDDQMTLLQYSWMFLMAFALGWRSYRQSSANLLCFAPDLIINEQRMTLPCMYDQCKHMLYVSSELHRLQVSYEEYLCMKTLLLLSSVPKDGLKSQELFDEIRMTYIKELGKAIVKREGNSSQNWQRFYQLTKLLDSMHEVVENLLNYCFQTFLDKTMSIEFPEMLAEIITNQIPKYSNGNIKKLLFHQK

[8] = target: ERβ (Homo sapiens, UniProt Q92731); experiment: Reporter assay of gene transcription activity, ERβ; assay type: cell-based
ERβ, sequence (Q92731 whole entry, species assumed): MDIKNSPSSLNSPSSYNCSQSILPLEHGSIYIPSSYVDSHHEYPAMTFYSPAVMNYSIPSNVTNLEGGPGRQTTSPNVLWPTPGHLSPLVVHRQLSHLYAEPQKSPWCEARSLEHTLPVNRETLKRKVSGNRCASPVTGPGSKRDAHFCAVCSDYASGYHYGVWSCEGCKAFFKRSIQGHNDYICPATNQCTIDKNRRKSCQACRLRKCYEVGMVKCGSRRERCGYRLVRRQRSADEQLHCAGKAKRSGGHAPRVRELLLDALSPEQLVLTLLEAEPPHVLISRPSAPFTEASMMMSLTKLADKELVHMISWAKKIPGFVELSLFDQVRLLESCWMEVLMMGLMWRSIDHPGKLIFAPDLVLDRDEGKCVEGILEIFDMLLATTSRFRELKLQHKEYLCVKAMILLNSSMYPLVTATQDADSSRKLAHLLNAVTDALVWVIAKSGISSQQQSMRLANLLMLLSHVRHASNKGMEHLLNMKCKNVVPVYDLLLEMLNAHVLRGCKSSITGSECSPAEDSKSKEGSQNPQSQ

[9] = Single-dose pharmacokinetics, dog; assay type: in vivo; settings: Beagle, serum, 10 mg/kg

CYP 3A4, sequence (P08684 whole entry): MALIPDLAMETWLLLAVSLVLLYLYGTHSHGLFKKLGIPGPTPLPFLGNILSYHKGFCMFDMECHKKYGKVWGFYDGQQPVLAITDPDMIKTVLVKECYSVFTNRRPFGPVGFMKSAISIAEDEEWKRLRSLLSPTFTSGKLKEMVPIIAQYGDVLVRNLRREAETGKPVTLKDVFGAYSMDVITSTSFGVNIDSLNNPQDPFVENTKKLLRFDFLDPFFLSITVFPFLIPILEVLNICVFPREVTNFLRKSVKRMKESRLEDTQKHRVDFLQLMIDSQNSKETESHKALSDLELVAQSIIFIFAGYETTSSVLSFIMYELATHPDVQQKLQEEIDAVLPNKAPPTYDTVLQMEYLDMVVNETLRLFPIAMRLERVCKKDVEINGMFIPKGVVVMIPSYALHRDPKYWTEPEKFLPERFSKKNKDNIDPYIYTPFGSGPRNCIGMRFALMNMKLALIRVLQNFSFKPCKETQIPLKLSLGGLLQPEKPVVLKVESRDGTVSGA

In the case of CCCN1CC(Oc2ccc([C@@H]3c4[nH]c5ccccc5c4C[C@@H](C)N3CC(C)(C)F)cc2)C1 [compound 21, (1R,3R)-2-(2-Fluoro-2-methylpropyl)-3-methyl-1-(4-((1-propylazetidin-3-yl)oxy)phenyl)-2,3,4,9-tetrahydro-1H-pyrido[3,4-b]indole], the IC50 [1] is reported as greater than 10 µM, the IC50 [2] is reported as 0.0316 µM and the IC50 ([3]; ERα pIC50, agonist mode, agonist mode) is reported as greater than 3.16 µM. The IC50 ([3]; ERα pIC50, antag. mode, antag. mode) was 0.001 µM, the IC50 [4] was 0.002 µM and the plasma protein-bound ([5]; across all species, including humans) was greater than 99%. For the same molecule, the “Plasma free drug percentage” value ([5]; hu plasma) was 0.08%, the IC50 [6] was 4 µM and the IC50 [7] was greater than 3.16 µM. The “agonist cross-reactivity on GR” value ([7]; in words) was “no agonist cross-reactivity”, the “GR pIC50, antag. mode” value ([7]; reporter assay, antag. mode) was less than 5.5 and the IC50 ([8]; Erβ pIC50, agonist mode, agonist mode) was greater than 3.16 µM. For the same molecule, the IC50 ([8]; Erβ pIC50, antag. mode, antag. mode) was 0.00316 µM, the AUC ([9]; iv) was 41300 ng·h/mL and the Cmax ([9]; iv) was 4060 ng/mL. The Vd ([9]; iv) was 16 L/kg, the clearance ([9]; iv) was 3.33 mL/min/kg and the half-life ([9]; iv) was 63 h. The AUC ([9]; po) was 33700 ng·h/mL, the Cmax ([9]; po) was 1760 ng/mL and the Tmax ([9]; po) was 1.5 h. It also gave a bioavailability ([9]; po) of 89% and a half-life ([9]; po) of 106 h.
